Reference: ChEMBL document CHEMBL3885881, “DrugMatrix”

Organism: Rattus norvegicus
Test: DrugMatrix - Regimen: Daily Repeat
Assay type: toxicity, organism-based, Sprague-Dawley
Set-up: regimen Daily Repeat, gender Male, age 6-8 weeks
Conditions: in vivo, po, route oral GAVAGE, […]; for ABSOLUTE BASOPHIL / ABSOLUTE EOSINOPHIL / ABSOLUTE LYMPHOCYTE / ABSOLUTE MONOCYTE / ABSOLUTE SEGMENTED NEUTROPHIL / BASOPHIL / EOSINOPHIL / ERYTHROCYTE COUNT / HEMATOCRIT / HEMOGLOBIN / LEUKOCYTE COUNT / LYMPHOCYTE / MEAN CORPUSCULAR HEMOGLOBIN / MEAN CORPUSCULAR HEMOGLOBIN CONCENTRATION / MEAN CORPUSCULAR VOLUME / MONOCYTE / NEUTROPHIL / NUCLEATED RED BLOOD CELLS / PLATELET COUNT: tissue Blood; for ALANINE AMINOTRANSFERASE / ALBUMIN / ALKALINE PHOSPHATASE / ASPARTATE AMINOTRANSFERASE / BLOOD UREA NITROGEN / CARBON DIOXIDE / CHLORIDE / CHOLESTEROL / CREATINE PHOSPHOKINASE / CREATININE / GLUCOSE / LACTATE DEHYDROGENASE / LIPASE / PHOSPHORUS / POTASSIUM / SODIUM / TOTAL BILIRUBIN / TOTAL PROTEIN / URIC ACID: tissue Plasma
[1] = 48.8 mg/kg, 72 h, dose level Low, time 3 day
[2] = 48.8 mg/kg, 120 h, dose level Low, time 5 day
[3] = 488 mg/kg, 72 h, dose level High, time 3 day
[4] = 488 mg/kg, 120 h, dose level High, time 5 day

C=CCc1ccc2c(c1)OCO2 [SAFROLE]
ABSOLUTE BASOPHIL [1]: 0 CELLS/uL | ABSOLUTE EOSINOPHIL [1]: 0 CELLS/uL | ABSOLUTE LYMPHOCYTE [1]: 11419.67 CELLS/uL | ABSOLUTE MONOCYTE [1]: 222 CELLS/uL | ABSOLUTE SEGMENTED NEUTROPHIL [1]: 1191.67 CELLS/uL | BASOPHIL [1]: 0% | EOSINOPHIL [1]: 0% | ERYTHROCYTE COUNT [1]: 5.33 x10E6/uL | HEMATOCRIT [1]: 33.63% | HEMOGLOBIN [1]: 13.47 G/DL | LEUKOCYTE COUNT [1]: 12.83 x10E3/uL | LYMPHOCYTE [1]: 89% | MEAN CORPUSCULAR HEMOGLOBIN [1]: 25.3 pg | MEAN CORPUSCULAR HEMOGLOBIN CONCENTRATION [1]: 40.03 G/DL | MEAN CORPUSCULAR VOLUME [1]: 63.03 fL | MONOCYTE [1]: 1.67% | NEUTROPHIL [1]: 9.33% | NUCLEATED RED BLOOD CELLS [1]: 0 /100WBC | PLATELET COUNT [1]: 1123 x10E3/uL | ALANINE AMINOTRANSFERASE [1]: 71.67 u/L | ALBUMIN [1]: 4 G/DL | ALKALINE PHOSPHATASE [1]: 447.67 u/L | ASPARTATE AMINOTRANSFERASE [1]: 90.67 u/L | BLOOD UREA NITROGEN [1]: 13.33 mg/dL | CARBON DIOXIDE [1]: 26 mmol/L | CHLORIDE [1]: 101.67 MEQ/L | CHOLESTEROL [1]: 78.67 mg/dL | CREATINE PHOSPHOKINASE [1]: 266.33 u/L | CREATININE [1]: 0.21 mg/dL | GLUCOSE [1]: 149.33 mg/dL | LACTATE DEHYDROGENASE [1]: 158.33 u/L | LIPASE [1]: 11.67 u/L | PHOSPHORUS [1]: 11.73 mg/dL | POTASSIUM [1]: 6.6 MEQ/L | SODIUM [1]: 143.53 MEQ/L | TOTAL BILIRUBIN [1]: 0.23 mg/dL | TOTAL PROTEIN [1]: 5.57 G/DL | URIC ACID [1]: 1.4 mg/dL | ABSOLUTE BASOPHIL [2]: 0 CELLS/uL | ABSOLUTE EOSINOPHIL [2]: 30.67 CELLS/uL | ABSOLUTE LYMPHOCYTE [2]: 9371 CELLS/uL | ABSOLUTE MONOCYTE [2]: 61.33 CELLS/uL | ABSOLUTE SEGMENTED NEUTROPHIL [2]: 1037 CELLS/uL | BASOPHIL [2]: 0% | EOSINOPHIL [2]: 0.33% | ERYTHROCYTE COUNT [2]: 5.63 x10E6/uL | HEMATOCRIT [2]: 35.6% | HEMOGLOBIN [2]: 14.13 G/DL | LEUKOCYTE COUNT [2]: 10.5 x10E3/uL | LYMPHOCYTE [2]: 89% | MEAN CORPUSCULAR HEMOGLOBIN [2]: 25.07 pg | MEAN CORPUSCULAR HEMOGLOBIN CONCENTRATION [2]: 39.67 G/DL | MEAN CORPUSCULAR VOLUME [2]: 63.27 fL | MONOCYTE [2]: 0.67% | NEUTROPHIL [2]: 10% | NUCLEATED RED BLOOD CELLS [2]: 1 /100WBC | PLATELET COUNT [2]: 1163.33 x10E3/uL | ALANINE AMINOTRANSFERASE [2]: 65 u/L | ALBUMIN [2]: 4.07 G/DL | ALKALINE PHOSPHATASE [2]: 334.67 u/L | ASPARTATE AMINOTRANSFERASE [2]: 88.67 u/L | BLOOD UREA NITROGEN [2]: 12 mg/dL | CARBON DIOXIDE [2]: 31.33 mmol/L | CHLORIDE [2]: 102 MEQ/L | CHOLESTEROL [2]: 59.67 mg/dL | CREATINE PHOSPHOKINASE [2]: 260.67 u/L | CREATININE [2]: 0.22 mg/dL | GLUCOSE [2]: 164.33 mg/dL | LACTATE DEHYDROGENASE [2]: 263.33 u/L | LIPASE [2]: 11.67 u/L | PHOSPHORUS [2]: 10.97 mg/dL | POTASSIUM [2]: 6.08 MEQ/L | SODIUM [2]: 144.37 MEQ/L | TOTAL BILIRUBIN [2]: 0.17 mg/dL | TOTAL PROTEIN [2]: 5.7 G/DL | URIC ACID [2]: 1.8 mg/dL | ABSOLUTE BASOPHIL [3]: 0 CELLS/uL | ABSOLUTE EOSINOPHIL [3]: 78 CELLS/uL | ABSOLUTE LYMPHOCYTE [3]: 16011.33 CELLS/uL | ABSOLUTE MONOCYTE [3]: 75.33 CELLS/uL | ABSOLUTE SEGMENTED NEUTROPHIL [3]: 1335.33 CELLS/uL | BASOPHIL [3]: 0% | EOSINOPHIL [3]: 0.33% | ERYTHROCYTE COUNT [3]: 6.08 x10E6/uL | HEMATOCRIT [3]: 37.6% | HEMOGLOBIN [3]: 15.17 G/DL | LEUKOCYTE COUNT [3]: 17.5 x10E3/uL | LYMPHOCYTE [3]: 90.67% | MEAN CORPUSCULAR HEMOGLOBIN [3]: 24.93 pg | MEAN CORPUSCULAR HEMOGLOBIN CONCENTRATION [3]: 40.33 G/DL | MEAN CORPUSCULAR VOLUME [3]: 61.83 fL | MONOCYTE [3]: 0.67% | NEUTROPHIL [3]: 8.33% | NUCLEATED RED BLOOD CELLS [3]: 0 /100WBC | PLATELET COUNT [3]: 1291.67 x10E3/uL | ALANINE AMINOTRANSFERASE [3]: 88.33 u/L | ALBUMIN [3]: 3.93 G/DL | ALKALINE PHOSPHATASE [3]: 421 u/L | ASPARTATE AMINOTRANSFERASE [3]: 112.67 u/L | BLOOD UREA NITROGEN [3]: 8.33 mg/dL | CARBON DIOXIDE [3]: 23.33 mmol/L | CHLORIDE [3]: 105.67 MEQ/L | CHOLESTEROL [3]: 87.33 mg/dL | CREATINE PHOSPHOKINASE [3]: 340.33 u/L | CREATININE [3]: 0.13 mg/dL | GLUCOSE [3]: 142 mg/dL | LACTATE DEHYDROGENASE [3]: 539.33 u/L | LIPASE [3]: 12 u/L | PHOSPHORUS [3]: 13.57 mg/dL | POTASSIUM [3]: 6.52 MEQ/L | SODIUM [3]: 146.57 MEQ/L | TOTAL BILIRUBIN [3]: 0.2 mg/dL | TOTAL PROTEIN [3]: 5.33 G/DL | URIC ACID [3]: 2.37 mg/dL | ABSOLUTE BASOPHIL [4]: 0 CELLS/uL | ABSOLUTE EOSINOPHIL [4]: 0 CELLS/uL | ABSOLUTE LYMPHOCYTE [4]: 12133.67 CELLS/uL | ABSOLUTE MONOCYTE [4]: 150 CELLS/uL | ABSOLUTE SEGMENTED NEUTROPHIL [4]: 1216.33 CELLS/uL | BASOPHIL [4]: 0% | EOSINOPHIL [4]: 0% | ERYTHROCYTE COUNT [4]: 6.25 x10E6/uL | HEMATOCRIT [4]: 37.83% | HEMOGLOBIN [4]: 14.97 G/DL | LEUKOCYTE COUNT [4]: 13.5 x10E3/uL | LYMPHOCYTE [4]: 89.33% | MEAN CORPUSCULAR HEMOGLOBIN [4]: 23.97 pg | MEAN CORPUSCULAR HEMOGLOBIN CONCENTRATION [4]: 39.53 G/DL | MEAN CORPUSCULAR VOLUME [4]: 60.6 fL | MONOCYTE [4]: 1% | NEUTROPHIL [4]: 9.67% | NUCLEATED RED BLOOD CELLS [4]: 0 /100WBC | PLATELET COUNT [4]: 1251.67 x10E3/uL | ALANINE AMINOTRANSFERASE [4]: 106.33 u/L | ALBUMIN [4]: 3.87 G/DL | ALKALINE PHOSPHATASE [4]: 337.67 u/L | ASPARTATE AMINOTRANSFERASE [4]: 130.67 u/L | BLOOD UREA NITROGEN [4]: 10.33 mg/dL | CARBON DIOXIDE [4]: 24 mmol/L | CHLORIDE [4]: 102.33 MEQ/L | CHOLESTEROL [4]: 116.33 mg/dL | CREATINE PHOSPHOKINASE [4]: 612.33 u/L | CREATININE [4]: 0.19 mg/dL | GLUCOSE [4]: 123.33 mg/dL | LACTATE DEHYDROGENASE [4]: 662.67 u/L | LIPASE [4]: 12.67 u/L | PHOSPHORUS [4]: 11.8 mg/dL | POTASSIUM [4]: 5.41 MEQ/L | SODIUM [4]: 142.07 MEQ/L | TOTAL BILIRUBIN [4]: 0.17 mg/dL | TOTAL PROTEIN [4]: 5.6 G/DL | URIC ACID [4]: 1.37 mg/dL
